Test results reported in patent US20220187282A1, “CARDIOMYOCYTE PROLIFERATION” (The Council of the Queensland Institute of Medical Research, priority 2019, published 2022).

Key:
Type in all cases: biochemical
kinases [1] = target: kinases (Homo sapiens, UniProt Q8IYT8); details: ULK2 FRET-Lantha SP; Test Conc(μM) 1
kinases [2] = target: kinases (Homo sapiens, UniProt Q13555); details: CAMK2G FRET-Lantha SP; Test Conc(μM) 1
kinases [3] = target: kinases (Homo sapiens, UniProt P54756); details: EPHA5 FRET-Z-Lyte SP; Test Conc(μM):ATP Conc(μM) 1:150
kinases [4] = target: kinases (Homo sapiens, UniProt O95835); details: LATS1 FRET-Lantha SP; Test Conc(μM) 1
kinases [5] = target: kinases (Homo sapiens, UniProt Q96RR4); details: CAMKK2 (Beta) FRET-Lantha SP; Test Conc(μM) 1
kinases [6] = target: kinases (Homo sapiens, UniProt Q00537); details: CDK17/cyclin Y FRET-Z-Lyte SP; Test Conc(μM):ATP Conc(μM) 1:50
kinases [7] = target: kinases (Homo sapiens, UniProt Q04912); details: MST1R (RON) FRET-Z-Lyte SP; Test Conc(μM):ATP Conc(μM) 1:10
kinases [8] = target: kinases (Homo sapiens, UniProt Q13976); details: PRKG1 FRET-Z-Lyte SP; Test Conc(μM):ATP Conc(μM) 1:25
kinases [9] = target: kinases (Homo sapiens, UniProt O94921); details: CDK14(PFTK1)/cyclinY Lantha SP; Test Conc(μM) 1
kinases (Homo sapiens, UniProt O94921), sequence (O94921 whole entry): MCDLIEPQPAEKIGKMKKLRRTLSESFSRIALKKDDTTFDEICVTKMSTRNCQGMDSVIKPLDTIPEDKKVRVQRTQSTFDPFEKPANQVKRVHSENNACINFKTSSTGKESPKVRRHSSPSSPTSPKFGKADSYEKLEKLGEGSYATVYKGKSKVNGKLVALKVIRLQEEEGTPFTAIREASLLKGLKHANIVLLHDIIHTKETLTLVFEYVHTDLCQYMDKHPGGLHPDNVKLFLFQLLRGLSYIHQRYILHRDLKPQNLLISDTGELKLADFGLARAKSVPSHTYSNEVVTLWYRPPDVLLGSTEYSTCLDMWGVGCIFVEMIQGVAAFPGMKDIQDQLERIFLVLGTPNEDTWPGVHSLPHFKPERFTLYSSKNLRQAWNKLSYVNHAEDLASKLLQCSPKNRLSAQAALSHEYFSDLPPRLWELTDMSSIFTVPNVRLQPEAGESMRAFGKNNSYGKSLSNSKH

kinases [10] = target: kinases (Homo sapiens, UniProt P14616); details: INSRR (IRR) *Mn* Z-Lyte SP; Test Conc(μM):ATP Conc(μM) 1:50
kinases [11] = target: kinases (Homo sapiens, UniProt O00444); details: PLK4 FRET-Lantha SP; Test Conc(μM) 1
kinases [12] = target: kinases (Homo sapiens, UniProt O00238); details: BMPR1B (ALK6) FRET-Lantha SP; Test Conc(μM) 1
kinases (Homo sapiens, UniProt O00238), sequence (O00238 14-502): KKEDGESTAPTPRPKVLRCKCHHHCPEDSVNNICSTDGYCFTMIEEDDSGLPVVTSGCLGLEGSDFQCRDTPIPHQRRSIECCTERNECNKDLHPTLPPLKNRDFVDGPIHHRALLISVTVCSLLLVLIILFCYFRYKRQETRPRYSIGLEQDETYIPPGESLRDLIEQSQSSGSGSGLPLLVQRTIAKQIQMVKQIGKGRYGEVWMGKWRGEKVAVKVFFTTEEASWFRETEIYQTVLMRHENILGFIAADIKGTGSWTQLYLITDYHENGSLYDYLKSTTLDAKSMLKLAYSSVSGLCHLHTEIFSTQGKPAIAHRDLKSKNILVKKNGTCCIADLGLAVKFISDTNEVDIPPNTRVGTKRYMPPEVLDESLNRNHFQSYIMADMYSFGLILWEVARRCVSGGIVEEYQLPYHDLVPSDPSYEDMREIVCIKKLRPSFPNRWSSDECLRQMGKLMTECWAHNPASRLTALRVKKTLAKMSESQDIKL

kinases [13] = target: kinases (Homo sapiens, UniProt P06239); details: LCK FRET-Z-Lyte SP; Test Conc(μM):ATP Conc(μM) 1:50
kinases [14] = target: kinases (Homo sapiens, UniProt Q9NR20); details: DYRK4 FRET-Z-Lyte SP; Test Conc(μM):ATP Conc(μM) 1:5
kinases [15] = target: kinases (Homo sapiens, UniProt Q9Y572); details: RIPK3 FRET-Lantha SP; Test Conc(μM) 1
kinases (Homo sapiens, UniProt Q9Y572), sequence (Q9Y572 whole entry): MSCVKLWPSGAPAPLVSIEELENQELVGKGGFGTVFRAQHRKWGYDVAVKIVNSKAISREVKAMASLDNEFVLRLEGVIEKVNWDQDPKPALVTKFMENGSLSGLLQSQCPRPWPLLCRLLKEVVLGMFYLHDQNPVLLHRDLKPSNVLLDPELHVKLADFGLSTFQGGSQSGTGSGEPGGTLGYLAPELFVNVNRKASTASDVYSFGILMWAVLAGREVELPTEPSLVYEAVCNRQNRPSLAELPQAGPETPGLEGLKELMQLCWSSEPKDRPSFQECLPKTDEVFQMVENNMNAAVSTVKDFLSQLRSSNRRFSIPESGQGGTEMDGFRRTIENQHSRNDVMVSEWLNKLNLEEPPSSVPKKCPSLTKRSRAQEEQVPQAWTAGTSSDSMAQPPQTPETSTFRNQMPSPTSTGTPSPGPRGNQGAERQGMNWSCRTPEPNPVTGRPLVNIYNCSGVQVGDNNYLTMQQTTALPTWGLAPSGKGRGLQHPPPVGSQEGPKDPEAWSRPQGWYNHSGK

kinases [16] = target: kinases (Homo sapiens, UniProt Q8NEB9); details: PIK3C3 (hVPS34) *Mn* Adapta SP; Test Conc(μM):ATP Conc(μM) 1:10
kinases (Homo sapiens, UniProt Q8NEB9), sequence (Q8NEB9 whole entry): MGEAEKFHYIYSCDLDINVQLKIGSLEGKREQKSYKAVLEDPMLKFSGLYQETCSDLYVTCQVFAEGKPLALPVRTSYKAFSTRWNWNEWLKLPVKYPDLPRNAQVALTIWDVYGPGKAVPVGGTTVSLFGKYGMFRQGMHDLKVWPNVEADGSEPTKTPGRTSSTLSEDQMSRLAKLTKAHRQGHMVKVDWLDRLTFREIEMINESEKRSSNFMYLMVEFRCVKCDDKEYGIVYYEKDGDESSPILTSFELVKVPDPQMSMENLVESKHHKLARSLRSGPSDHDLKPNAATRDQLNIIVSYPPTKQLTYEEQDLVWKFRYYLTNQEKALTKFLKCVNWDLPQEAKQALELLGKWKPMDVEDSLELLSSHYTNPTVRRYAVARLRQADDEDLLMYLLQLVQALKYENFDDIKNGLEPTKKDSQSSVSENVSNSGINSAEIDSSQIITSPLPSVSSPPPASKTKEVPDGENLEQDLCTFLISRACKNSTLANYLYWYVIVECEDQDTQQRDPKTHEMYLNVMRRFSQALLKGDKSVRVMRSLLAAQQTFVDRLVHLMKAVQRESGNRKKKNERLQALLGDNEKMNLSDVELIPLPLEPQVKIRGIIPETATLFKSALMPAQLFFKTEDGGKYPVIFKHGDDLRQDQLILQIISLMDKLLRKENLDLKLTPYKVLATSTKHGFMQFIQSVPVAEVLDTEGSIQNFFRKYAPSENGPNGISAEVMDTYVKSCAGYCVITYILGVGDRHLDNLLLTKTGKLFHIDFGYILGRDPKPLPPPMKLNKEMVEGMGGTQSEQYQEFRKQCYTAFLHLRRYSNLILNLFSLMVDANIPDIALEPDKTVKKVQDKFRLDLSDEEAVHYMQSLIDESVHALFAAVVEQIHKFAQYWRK

kinases [17] = target: kinases (Homo sapiens, UniProt Q08345); details: DDR1 FRET-Lantha SP; Test Conc(μM) 1
kinases [18] = target: kinases (Homo sapiens, UniProt O15111); details: CHUK(IKK alpha) FRET-Adapta SP; Test Conc(μM):ATP Conc(μM) 1:10
kinases (Homo sapiens, UniProt O15111), sequence (O15111 whole entry): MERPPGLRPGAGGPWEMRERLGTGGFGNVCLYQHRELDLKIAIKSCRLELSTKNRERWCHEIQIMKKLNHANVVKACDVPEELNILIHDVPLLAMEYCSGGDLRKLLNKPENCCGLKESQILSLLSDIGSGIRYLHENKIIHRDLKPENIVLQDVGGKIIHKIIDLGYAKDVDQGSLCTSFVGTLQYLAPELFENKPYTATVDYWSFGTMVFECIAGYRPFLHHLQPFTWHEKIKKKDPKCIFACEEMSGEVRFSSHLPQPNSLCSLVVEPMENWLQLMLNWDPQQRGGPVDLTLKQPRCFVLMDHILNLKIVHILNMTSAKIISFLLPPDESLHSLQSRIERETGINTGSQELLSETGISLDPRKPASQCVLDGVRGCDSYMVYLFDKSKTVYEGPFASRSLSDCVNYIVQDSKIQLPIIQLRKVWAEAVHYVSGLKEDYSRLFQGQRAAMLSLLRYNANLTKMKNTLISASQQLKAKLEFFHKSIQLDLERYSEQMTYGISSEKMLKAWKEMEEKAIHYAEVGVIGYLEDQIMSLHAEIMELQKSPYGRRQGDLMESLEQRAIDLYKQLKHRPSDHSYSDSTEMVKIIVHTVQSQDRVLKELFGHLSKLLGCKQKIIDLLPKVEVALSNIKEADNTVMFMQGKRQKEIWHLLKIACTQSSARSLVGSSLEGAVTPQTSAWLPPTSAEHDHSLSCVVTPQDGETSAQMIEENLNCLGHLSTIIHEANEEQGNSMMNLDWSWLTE

kinases [19] = target: kinases (Homo sapiens, UniProt Q15303); details: ERBB4 (HER4) *Mn* Z-Lyte SP; Test Conc(μM):ATP Conc(μM) 1:5
kinases [20] = target: kinases (Homo sapiens, UniProt Q86V86); details: PIM3 FRET-Z-Lyte SP; Test Conc(μM):ATP Conc(μM) 1:1000
kinases [21] = target: kinases (Homo sapiens, UniProt Q13177); details: PAK2 (PAK65) FRET-Z-Lyte SP; Test Conc(μM):ATP Conc(μM) 1:75
kinases [22] = target: kinases (Homo sapiens, UniProt Q9P1W9); details: PIM2 FRET-Z-Lyte SP; Test Conc(μM):ATP Conc(μM) 1:5
kinases (Homo sapiens, UniProt Q9P1W9), sequence (Q9P1W9 whole entry): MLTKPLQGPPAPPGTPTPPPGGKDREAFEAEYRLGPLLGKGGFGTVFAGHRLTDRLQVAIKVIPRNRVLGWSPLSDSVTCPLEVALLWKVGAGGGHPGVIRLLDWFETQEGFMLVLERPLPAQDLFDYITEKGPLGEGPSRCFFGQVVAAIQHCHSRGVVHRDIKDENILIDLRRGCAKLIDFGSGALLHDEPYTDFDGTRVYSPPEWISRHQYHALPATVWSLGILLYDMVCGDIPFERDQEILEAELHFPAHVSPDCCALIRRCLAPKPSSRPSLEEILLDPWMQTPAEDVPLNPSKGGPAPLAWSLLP

kinases [23] = target: kinases (Homo sapiens, UniProt O14757); details: CHEK1 (CHK1) FRET-Z-Lyte SP; Test Conc(μM):ATP Conc(μM) 1:50
kinases [24] = target: kinases (Homo sapiens, UniProt Q05655); details: PRKCD (PKC delta) Z-Lyte SP; Test Conc(μM):ATP Conc(μM) 1:25
kinases (Homo sapiens, UniProt Q05655), sequence (Q05655 whole entry): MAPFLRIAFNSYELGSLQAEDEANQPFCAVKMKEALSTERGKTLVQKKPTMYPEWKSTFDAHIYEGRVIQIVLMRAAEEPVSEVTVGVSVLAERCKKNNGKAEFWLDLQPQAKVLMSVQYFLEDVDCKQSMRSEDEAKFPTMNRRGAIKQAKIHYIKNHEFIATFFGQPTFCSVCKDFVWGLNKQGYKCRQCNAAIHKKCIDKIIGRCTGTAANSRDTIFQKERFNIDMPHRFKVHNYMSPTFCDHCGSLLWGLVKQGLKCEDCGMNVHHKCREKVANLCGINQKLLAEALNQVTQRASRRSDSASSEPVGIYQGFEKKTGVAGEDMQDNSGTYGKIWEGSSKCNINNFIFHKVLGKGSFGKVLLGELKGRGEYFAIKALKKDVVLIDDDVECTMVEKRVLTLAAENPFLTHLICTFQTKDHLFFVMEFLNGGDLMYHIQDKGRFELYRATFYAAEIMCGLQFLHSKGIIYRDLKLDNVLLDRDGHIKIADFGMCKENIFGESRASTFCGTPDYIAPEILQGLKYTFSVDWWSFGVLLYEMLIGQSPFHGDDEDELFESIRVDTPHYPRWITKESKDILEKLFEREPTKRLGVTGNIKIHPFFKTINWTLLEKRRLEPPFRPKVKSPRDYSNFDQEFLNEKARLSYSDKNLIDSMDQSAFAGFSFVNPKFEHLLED

kinases [25] = target: kinases (Homo sapiens, UniProt Q9UM73); details: ALK FRET-Z-Lyte SP; Test Conc(μM):ATP Conc(μM) 1:25
kinases [26] = target: kinases (Homo sapiens, UniProt Q07912); details: TNK2 (ACK) FRET-Lantha SP; Test Conc(μM) 1
kinases [27] = target: kinases (Homo sapiens, UniProt Q9H3Y6); details: SRMS (Srm) FRET-Z-Lyte SP; Test Conc(μM):ATP Conc(μM) 1:150
kinases (Homo sapiens, UniProt Q9H3Y6), sequence (Q9H3Y6 whole entry): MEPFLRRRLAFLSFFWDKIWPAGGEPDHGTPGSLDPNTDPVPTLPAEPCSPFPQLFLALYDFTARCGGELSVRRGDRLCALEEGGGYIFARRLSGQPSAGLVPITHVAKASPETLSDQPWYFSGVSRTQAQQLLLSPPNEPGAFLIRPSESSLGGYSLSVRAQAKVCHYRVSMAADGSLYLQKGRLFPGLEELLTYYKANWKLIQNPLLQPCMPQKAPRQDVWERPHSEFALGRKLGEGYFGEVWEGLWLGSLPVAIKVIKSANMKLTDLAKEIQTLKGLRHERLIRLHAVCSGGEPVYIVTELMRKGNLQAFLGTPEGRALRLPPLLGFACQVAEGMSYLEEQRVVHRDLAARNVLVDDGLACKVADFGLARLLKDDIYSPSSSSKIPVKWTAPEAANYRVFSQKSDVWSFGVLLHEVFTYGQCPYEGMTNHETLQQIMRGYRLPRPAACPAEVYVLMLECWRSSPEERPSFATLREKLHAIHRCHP

kinases [28] = target: kinases (Homo sapiens, UniProt P54753); details: EPHB3 FRET-Z-Lyte SP; Test Conc(μM):ATP Conc(μM) 1:75
kinases [29] = target: kinases (Homo sapiens, UniProt O00141); details: SGK (SGK1) FRET-Z-Lyte SP; Test Conc(μM):ATP Conc(μM) 1:25

Row | SMILES | Mean Inhib (%) (kinases [1]) | Mean Inhib (%) (kinases [2]) | Mean Inhib (%) (kinases [3]) | Mean Inhib (%) (kinases [4]) | Mean Inhib (%) (kinases [5]) | Mean Inhib (%) (kinases [6]) | Mean Inhib (%) (kinases [7]) | Mean Inhib (%) (kinases [8]) | Mean Inhib (%) (kinases [9]) | Mean Inhib (%) (kinases [10]) | Mean Inhib (%) (kinases [11]) | Mean Inhib (%) (kinases [12]) | Mean Inhib (%) (kinases [13]) | Mean Inhib (%) (kinases [14]) | Mean Inhib (%) (kinases [15]) | Mean Inhib (%) (kinases [16]) | Mean Inhib (%) (kinases [17]) | Mean Inhib (%) (kinases [18]) | Mean Inhib (%) (kinases [19]) | Mean Inhib (%) (kinases [20]) | also measured
1 | Cc1ccc(NC(=O)c2ccnc(N3CCOCC3)c2)cc1Nc1ccnc(N2CC(C)OC(C)C2)n1 (stereo not shown) [compound 3] | 2.6% | −1.7% | 6.7% | 19.8% | −2.5% | 0.9% | −8.2% | 5.7% | 3.5% | 13.5% | 0.2% | 11.9% | −4.1% | 0.9% | 20.9% | 3.5% | 82.4% | −6.9% | 0.8% | −1.4% | Mean Inhib (%) (kinases [21]): 14.5%; Mean Inhib (%) (kinases [22]): −0.3%; Mean Inhib (%) (kinases [23]): 6.3%; Mean Inhib (%) (kinases [24]): 15.1%; Mean Inhib (%) (kinases [25]): 11.9%; Mean Inhib (%) (kinases [26]): 0.2%; Mean Inhib (%) (kinases [27]): 6.2%; Mean Inhib (%) (kinases [28]): −0.5%; Mean Inhib (%) (kinases [29]): −7.0%
2 | Cc1cc(Oc2ccnc(Nc3ccc(S(N)(=O)=O)cc3)c2)c(-c2ccccn2)nc1C [compound 65] | −1.0% | 1.3% | 65.2% | 17.2% | −3.4% | 9.6% | 5.3% | 0.3% | 11.7% | 5.5% | 6.1% | 107.0% | 39.7% | −4.9% | 76.6% | 1.1% | 1.7% | −6.2% | 3.4% | −2.6% | Mean Inhib (%) (kinases [21]): 12.5%; Mean Inhib (%) (kinases [22]): 3.7%; Mean Inhib (%) (kinases [23]): 14.8%; Mean Inhib (%) (kinases [24]): 1.0%; Mean Inhib (%) (kinases [25]): 4.2%; Mean Inhib (%) (kinases [26]): 6.5%; Mean Inhib (%) (kinases [27]): 1.5%; Mean Inhib (%) (kinases [28]): 1.6%; Mean Inhib (%) (kinases [29]): −1.4%
